Target: T1, New Delhi metallo-β-lactamase (NDM-1) (Escherichia coli, UniProt E5KIY2)
T1 construct: gene blaNDM-1; recombinant NDM-1 purified from E. coli BL21(DE3)-pET-32a(+)-blaNDM-1
Experiment: nitrocefin hydrolysis assay with purified NDM-1, OD492
Assay type: biochemical

T1 sequence (E5KIY2 29-270 limits assumed): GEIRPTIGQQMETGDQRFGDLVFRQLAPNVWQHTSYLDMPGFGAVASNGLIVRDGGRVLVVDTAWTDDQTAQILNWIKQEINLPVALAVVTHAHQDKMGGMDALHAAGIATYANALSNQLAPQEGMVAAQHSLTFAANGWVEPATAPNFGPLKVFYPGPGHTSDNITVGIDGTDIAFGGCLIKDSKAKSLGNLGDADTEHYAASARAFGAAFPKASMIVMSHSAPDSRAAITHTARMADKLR

**Q.** Which IC50 does the source give for CC(C)NCC(O)COc1ccc(CCOCC2CC2)cc1 (stereo not shown) [BET, betaxolol] here?
**A.** 19.3 ± 0.9 µM
